Assay results taken from paper PMC11292626, “5-Fluoroindole Reduces the Bacterial Burden in a Murine Model of Mycobacterium tuberculosis Infection” (ACS Omega, 2024).
≈ marks a conversion by molar mass, not a printed value.

How the values were obtained:
Assay in all cases: microbe, parasite or virus in culture
Format in all cases: cell-based
[1] = tested on: M. tuberculosis PT12 strain; conditions: Mycobacterium tuberculosis, PT12STRAIN, read-out: MIC PT12
[2] = tested on: M. tuberculosis PT2 strain; conditions: Mycobacterium tuberculosis, PT2STRAIN, read-out: MIC PT2
[3] = tested on: M. tuberculosis PT20 strain; conditions: Mycobacterium tuberculosis, PT20STRAIN, read-out: MIC PT20

Compound	MIC [1] [µM]	MIC [2] [µM]	MIC [3] [µM]
NNC(=O)c1ccncc1 [INH, isoniazid, reference compound]	146 (≈ 20 µg/mL)		
Fc1ccc2[nH]ccc2c1 [Compound 1, 5-Fluoroindole]	4.7 (≈ 0.635 µg/mL)	4.7 (≈ 0.635 µg/mL)	4.7 (≈ 0.635 µg/mL)
